Legend:
Kunming (KM) mice = assay: Mouse light-dark transition experiment (Experiments 3, 10); assay type: in vivo; conditions: 2.5 mg/kg into the stomach once daily 7 days, within 10 minutes
Protocol: 3.5.1 Group division and administration of drug: The mice are grouped randomly as 5 groups, and 10 mice are in each group. 1. High dose of Embodiment 1 (80 mg/kg); 2. middle dose of Embodiment 1 (40 mg/kg); 3. low dose of Embodiment 1 (20 mg/kg); 4. Diazepam (2.5 mg/kg); and 5. physiological saline (normal saline, NS). The drugs are fed into the mouse stomach once every day, and the mouse is administered for continuous 7 days. In the period of administration, the mouse eats and drinks freely, and the experiment is proceeded after 1 hour of the last administration of drug on the eighth day.
Mouse light-dark transition test: The dark chamber occupies one third of the light-dark transition chamber (44 cm×21 cm×21 cm), and the top is capped. The light chamber occupies two third thereof and is illuminated brightly. […] The times that the mouse enters into the dark chamber and returns to the light chamber within 10 minutes are determined, and the times thereof are being the index for evaluating the anti-anxiety function of the drugs. […]
Mouse light-dark transition test: The dark chamber occupies one third of the light-dark transition chamber (44 cm×21 cm×21 cm), and the top is capped. […] The times that the mouse enters into the dark chamber and returns to the light chamber within 10 minutes are determined, and the times thereof are being the index for evaluating the anti-anxiety function of the drugs.

ICR mice = assay: Resetpine-induced mouse body temperature decrease experiment (Experiments 2, 5, 7); assay type: in vivo; conditions: Experiment 5; 3 mg/kg P.O. 7 days; 4 hours after Resetpine 2 mg/kg i.p.
Protocol: 2.5.1 Group division and administration of drug: The mice are grouped randomly, and 10 mice are in each group. 1. High dose of Embodiment 1 (80 mg/kg, P.O., administered for 7 days); 2. middle dose of Embodiment 1 (40 mg/kg, P.O., administered for 7 days); 3. low dose of Embodiment 1 (20 mg/kg, P.O., administered for 7 days); 4.
2.5.2 Experimental method: After 1 hour of the last administration of drug on the eighth day, the mouse's anal temperature is determined. Then 2 mg of Resetpine per kilogram of the body weight is given by intraperitoneal injection. After 4 hours of injecting Resetpine, mouse's anal temperature is determined once again. The depth and time of injecting the thermometer into mouse's anus are identical in each temperature measurement.
5.5.1 Group division and administration of drug: The mice are grouped randomly, and 10 mice are in each group. 1. […]
5.5.2 Experimental method: After 1 hour of the last administration of drug on the eighth day, the mouse's anal temperature is determined. […] After 4 hours of injecting Resetpine, mouse's anal temperature is determined once again. […]
2.5.2 Experimental method: After 1 hour of the last administration of drug on the eighth day, the mouse's anal temperature is determined. […] After 4 hours of injecting Resetpine, mouse's anal temperature is determined once again. […]

Structure (SMILES)	Times of passing from dark chamber to light chamber (Kunming (KM) mice; Experiment 3)	Times of passing from dark chamber to light chamber (Kunming (KM) mice; Experiment 10)	Time of non-movement (ICR mice)
CN1C(=O)CN=C(c2ccccc2)c2cc(Cl)ccc21 [Diazepam]	11.3 ± 4.54	11.7 ± 4.47	
Fc1ccc([C@@H]2CCNC[C@H]2COc2ccc3c(c2)OCO3)cc1 [Paroxetine]			2.38 ± 0.69 s

From patent US20130040903A1, “PHARMACEUTICAL COMPOSITIONS FOR TREATING DEPRESSION AND ANXIETY” (priority 2007, published 2013)
